Twelve compounds from patent US7977352B2, “Triazolopyridine compounds useful for the treatment of degenerative and inflammatory diseases” (Galapagos NV, priority 2006, dated 2011) can be followed below.

Assay [1] deals with MMP1 expression by activated synovial fibroblasts (RASFs). Nature of the assay: MMP assay: MMP1 expression by RASFs triggered with TNF-α (MMP1 ELISA). The format is cell-based. The note with it: Fibroblast, 48 h, TNF-α trigger 10 ng/mL, semi-quantitative score, read-out: REDUCTION MMP1/TNFa. Here is the method: A 384-well format ELISA for measurement of MMP1 is developed. Various primary antibodies are tested, as well as various ELISA protocols. The following protocol is developed and validated to measure MMP1 levels in SF supernatant in 384 well plates: white Lumitrac 600 384 well plates (Greiner) are coated with 2 μg/mL anti-MMP1 antibody MAB1346 (Chemicon). The antibody is diluted in buffer 40 (1.21 g Tris base (Sigma), 0.58 g NaCl (Calbiochem) and 5 mL 10% NaN3 (Sigma) in 1 L milliQ water and adjusted to pH 8.5). After overnight incubation at 4° C., plates are washed with PBS (80 g NaCl, 2 g KCl (Sigma), 11.5 g Na2HPO4.7H2O and 2 g KH2PO4 in 10 L milliQ; pH 7.4) and blocked with 100 μL/well Casein buffer (2% Casein (VWR International) in PBS). Next day, casein buffer is removed from ELISA plates and replaced by 50 μL/well EC buffer (4 g casein, 2.13 g Na2HPO4 (Sigma), 2 g bovine albumin (Sigma), 0.69 g NaH2PO4.H2O (Sigma), 0.5 g CHAPS (Roche), 23.3 g NaCl, 4 mL 0.5 M EDTA pH 8 (Invitrogen), 5 mL 10% NaN3 in 1 L milliQ and adjusted to pH 7.0). 0.25 mM DTT (Sigma) is added to the thawed sample plates. After removal of the EC buffer, 20 μL of sample is transferred to the ELISA plates. After overnight incubation at 4° C. plates are washed twice with PBS and once with PBST (PBS with 0.05% Tween-20 (Sigma)) and incubated with 35 μL/well biotinylated anti-MMP1 antibody solution (R&D). This secondary antibody is diluted in buffer C (0.82 g NaH2PO4.H2O, 4.82 g Na2HPO4, 46.6 g NaCl, 20 g bovine albumin and 4 mL 0.5M EDTA pH 8 in 2 L milliQ and adjusted to pH 7.0) at a concentration of 5 μg/mL. After 2 h of incubation at RT, plates are washed as described above and incubated with 50 μL/well streptavidin-HRP conjugate (Biosource). Streptavidin-HRP conjugate is diluted in buffer C at a concentration of 0.25 μg/mL. After 45 min, plates are washed as described above and incubated for 5 min with 50 μL/well BM Chem ELISA Substrate (Roche). Readout is performed on the Luminoscan Ascent Luminometer (Labsystems) with an integration time of 200 msec or with an Envision reader (Perkin Elmer).
SFs were acquired at passage 1 from a commercial supplier (Cell applications, Inc.). SFs are cultured in DMEM supplemented with 10% heat-inactivated FBS, 1× penicillin/streptomycin (Invitrogen) at 37° C., 10% CO2 until passage 6. Aliquots of the cells are frozen and cryopreserved in liquid nitrogen. Starting from a cryopreserved aliquot, cells are further expanded by sub-culturing cells at 1/3 ratio every week. Cells between passage 10 and 12 are routinely used in compound testing according to following protocol.
Starting from the compound master stocks (all at 10 mM concentration in 100% DMSO) a 3-fold serial dilution is made in 96-well plates in 100% DMSO. Then, plates are further diluted 45-fold in M199 medium supplemented with 1% heat-inactivated FBS to obtain a intermediate work stock.
At day 1, RASFs are seeded in 96 well plates (flat bottom, tissue culture treated, Greiner) at a density of 3000 cells/well in complete synovial growth medium (Cell Applications). Day 5, the medium is completely removed from the cells, and replaced by 81 μL of M199 medium supplemented with 1% heat-inactivated FBS followed by addition of 10 μL compound out of the intermediate work stock. After an incubation period of 90 minutes, which allows the compounds to equilibrate and enter the cells, cells are stimulated with either TNF-α or ‘complex trigger’. TNF-α trigger is added in a volume of […] to obtain final concentration of 10 ng/mL. For that, TNF-α stock (PeproTech) at 10 μg/mL was diluted to 100 ng/mL TNF-a in M199 medium supplemented with 1% FBS. ‘Complex trigger’ mix is added in a volume of 20 μL to obtain a final concentration of 12.5%. For that, ‘complex trigger’ mix, is diluted to 80% with M199 medium supplemented with 1% FBS. […]
Background: In an ELISA, binding on a coated surface is turned into a signal by an enzyme label.

The target in another assay is T1, TAK1-TAB1 fusion protein (Homo sapiens, UniProt O43318).
T1 construct: purchased Upstate 14-600
T1 sequence (O43318 with tags, fused parts or gaps limits assumed): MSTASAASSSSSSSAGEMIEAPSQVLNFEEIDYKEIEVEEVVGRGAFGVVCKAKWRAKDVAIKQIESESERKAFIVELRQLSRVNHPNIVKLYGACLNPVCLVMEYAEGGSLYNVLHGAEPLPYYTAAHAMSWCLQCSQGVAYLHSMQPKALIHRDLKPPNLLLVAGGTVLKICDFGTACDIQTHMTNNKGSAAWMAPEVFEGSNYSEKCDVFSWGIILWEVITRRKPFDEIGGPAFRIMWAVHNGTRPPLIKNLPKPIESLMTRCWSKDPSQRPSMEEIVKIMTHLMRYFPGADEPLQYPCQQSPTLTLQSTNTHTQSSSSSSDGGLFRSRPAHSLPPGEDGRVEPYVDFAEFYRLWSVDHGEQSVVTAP
In words: In vitro TAK1 kinase assay. The format is biochemical. The note with it: casein substrate, [33P]-γ-ATP, 90 minutes at 30° C., semi-quantitative score, read-out: POTENCY TAK1 (MAP3K7). Here is the method: For assessing TAK1 inhibition, active TAK1-TAB1 fusion protein was used from Upstate (Cat. No, 14-600). Kinase reactions are set up in 96-well polypropylene plates in 25 μL containing 0.5 mU TAK1-TAB1 fusion protein, 5mM ATP, 0.01 μCi/μL [^33P]-γ-ATP, 0.1 mg/mL casein substrate in 1× reaction buffer containing 10 mM MOPS pH 7.0, 1 mM EDTA.
Starting from the compound master stocks (all at 10 mM concentration in 100% DMSO) a 3-fold serial dilution is made in 96-well plates in 100% DMSO. Plates are further diluted […] in H2O containing 3.5% DMSO, to obtain an intermediate work stock with compounds at 5× the final assay concentration in 5% DMSO.
5 μL of the intermediate stock is transferred into V-bottom 96 well polypropylene plates and 11 μL of Enzyme mix is added. Enzyme mix is made by combining 5 μL 5× reaction buffer ([…] pH 7.0, 1 mM EDTA), 5 μL casein (Sigma) diluted in H20 to 0.5 mg/mL and 1 μL of TAK1-TAB1 fusion protein that was prediluted to 0.5 mU/μL in 1× enzyme dilution buffer (20 mM MOPS pH 7.0, 0.1 mM EDTA, 0.01% Brij-35, 5% glycerol, 1 mM DTT, 1 mg/ml BSA).
The reactions are started by the addition of 9 μL of mixture containing ATP (20.83 uM) and [^33P]-γ-ATP (0.028 μCi/μL).
The assay is stopped 90 minutes after incubation at 30° C. by the addition of 25 μL phosphoric acid (150 mM). The label incorporated into the casein substrate is separated from labeled unincorporated ATP by filtration onto 96-well filter plates using a harvester device. After 6 washes with 75 mM phosphoric acid, the bottom of the filter plates are sealed, and incorporated label is quantified after addition of 40 μL scintillation fluid using TopCount.

A value given as a limit tells only on which side of the number the result lay.

On to `CCCN1CCN(c2ccc(Nc3ccc(-c4ccc(C(N)=O)cc4)n4ncnc34)cc2)CC1` [Example 13, 4-(8-{[4-(4-propylpiperazin-1-yl)phenyl]amino}[1,2,4]triazolo[1,5-a]pyridin-5-yl)benzamide], for which the results for the IC50 (in assay [1]; at TAK1-TAB1 fusion protein) were more than 10 µM and less than 0.5 µM, respectively.

With `C[C@@H]1CN(c2ccc(Nc3ccc(-c4cc[nH]c(=O)c4)n4ncnc34)cc2)C[C@H](C)N1C` [Example 57, 4-[8-({4-[(3R,5S)-3,4,5-trimethylpiperazin-1-yl]phenyl}amino)[1,2,4]triazolo[1,5-a]pyridin-5-yl]pyridin-2(1H)-one], the IC50 in assay [1] was 1 to 5 µM; at TAK1-TAB1 fusion protein it was less than 0.5 µM.

Consider `CC(C)N1CCN(c2ccc(Nc3ccc(-c4ccc5cc[nH]c5c4)n4ncnc34)cc2)CC1` [Example 53, 5-(1H-indol-6-yl)-N-[4-(4-isopropylpiperazin-1-yl)phenyl][1,2,4]triazolo[1,5-a]pyridin-8-amine], for which the IC50 (in assay [1]; at TAK1-TAB1 fusion protein) was more than 10 µM in each case.

Take `c1nc2c(Nc3ccc(N4CCOCC4)cc3)ccc(-c3ccc4[nH]ccc4c3)n2n1` [Example 50, 5-(1H-indol-5-yl)-N-(4-morpholin-4-ylphenyl)[1,2,4]triazolo[1,5-a]pyridin-8-amine]: the IC50 in assay [1] was 1 to 5 µM; at TAK1-TAB1 fusion protein it was more than 10 µM.

Take `CC(C)CCN1CCN(c2ccc(Nc3ccc(-c4cc[nH]c(=O)c4)n4ncnc34)cc2)CC1` [Example 22, 4-[8-({4-[4-(3-methylbutyl)piperazin-1-yl]phenyl}amino)[1,2,4]triazolo[1,5-a]pyridin-5-yl]pyridin-2(1H)-one]: the IC50 in assay [1] was 1 to 5 µM; at TAK1-TAB1 fusion protein it was less than 0.5 µM.

Turning to `c1nc2c(Nc3ccc(N4CCOCC4)cc3)ccc(-c3ccc4cc[nH]c4c3)n2n1` [Example 52, 5-(1H-indol-6-yl)-N-(4-morpholin-4-ylphenyl)[1,2,4]triazolo[1,5-a]pyridin-8-amine], the IC50 (in assay [1]; on TAK1-TAB1 fusion protein) was more than 10 µM each time.

Regarding `c1nc2c(Nc3ccc(N4CCN(C5CCC5)CC4)cc3)ccc(-c3cn[nH]c3)n2n1` [Example 35, N-[4-(4-cyclobutylpiperazin-1-yl)phenyl]-5-(1H-pyrazol-4-yl)[1,2,4]triazolo[1,5-a]pyridin-8-amine], the IC50 in assay [1] is more than 10 µM; at TAK1-TAB1 fusion protein, less than 0.5 µM.

As for `CCC(CC)N1CCN(c2ccc(Nc3ccc(-c4ccc(C(N)=O)cc4)n4ncnc34)cc2)CC1` [Example 14, 4-[8-({4-[4-(1-ethylpropyl)piperazin-1-yl]phenyl}amino)[1,2,4]triazolo[1,5-a]pyridin-5-yl]benzamide], the values for the IC50 (in assay [1]; on TAK1-TAB1 fusion protein) were more than 10 µM and less than 0.5 µM, respectively.

Regarding `CC(C)N1CCN(c2ccc(Nc3ccc(-c4ccc(F)c(C(N)=O)c4)n4ncnc34)cc2)CC1` [Example 46, 2-fluoro-5-(8-{[4-(4-isopropylpiperazin-1-yl)phenyl]amino}[1,2,4]triazolo[1,5-a]pyridin-5-yl)benzamide], the IC50 (in assay [1]; on TAK1-TAB1 fusion protein) was more than 10 µM throughout.

In the case of `COc1ncc(-c2ccc(Nc3ccc(N4CCN(C(C)C)CC4)cc3)c3ncnn23)c(OC)n1` [Example 56, 5-(2,4-dimethoxypyrimidin-5-yl)-N-[4-(4-isopropylpiperazin-1-yl)phenyl][1,2,4]triazolo[1,5-a]pyridin-8-amine], the IC50 (in assay [1]; on TAK1-TAB1 fusion protein) was more than 10 µM each time.

For the compound `CCC(CC)N1CCN(c2ccc(Nc3ccc(-c4cn[nH]c4)n4ncnc34)cc2)CC1` [Example 34, N-{4-[4-(1-ethylpropyl)piperazin-1-yl]phenyl}-5-(1H-pyrazol-4-yl)[1,2,4]triazolo[1,5-a]pyridin-8-amine], the IC50 in assay [1] is 1 to 5 µM; on TAK1-TAB1 fusion protein it was less than 0.5 µM.

For the compound `O=c1cc(-c2ccc(Nc3ccc(N4CCN(C5CC5)CC4)cc3)c3ncnn23)cc[nH]1` [Example 23, 4-(8-{[4-(4-cyclopropylpiperazin-1-yl)phenyl]amino}[1,2,4]triazolo[1,5-a]pyridin-5-yl)pyridin-2(1H)-one], the IC50 in assay [1] was 1 to 5 µM; at TAK1-TAB1 fusion protein it was less than 0.5 µM.
